Data reported in ChEMBL document CHEMBL5113471 (Eur J Med Chem, 2022).
Each block holds one compound with its values, some of them ahead of it. Calls of active or inactive are those of the source. The rule behind the calls is not given here.

What was measured:
[1] = Antiproliferative activity against BRCA1-deficient human UWB1289 cells assessed as inhibition of cell proliferation incubated for 7 days by SRB assay; format: functional, cell-based; settings: UWB1289, 168 h
[2] = molecular target: Poly [ADP-ribose] polymerase 1 (Homo sapiens, UniProt P09874); assay: Inhibition of human recombinant PARP1 in presence of NAD+ by ELISA
Poly [ADP-ribose] polymerase 1, sequence (P09874 whole entry): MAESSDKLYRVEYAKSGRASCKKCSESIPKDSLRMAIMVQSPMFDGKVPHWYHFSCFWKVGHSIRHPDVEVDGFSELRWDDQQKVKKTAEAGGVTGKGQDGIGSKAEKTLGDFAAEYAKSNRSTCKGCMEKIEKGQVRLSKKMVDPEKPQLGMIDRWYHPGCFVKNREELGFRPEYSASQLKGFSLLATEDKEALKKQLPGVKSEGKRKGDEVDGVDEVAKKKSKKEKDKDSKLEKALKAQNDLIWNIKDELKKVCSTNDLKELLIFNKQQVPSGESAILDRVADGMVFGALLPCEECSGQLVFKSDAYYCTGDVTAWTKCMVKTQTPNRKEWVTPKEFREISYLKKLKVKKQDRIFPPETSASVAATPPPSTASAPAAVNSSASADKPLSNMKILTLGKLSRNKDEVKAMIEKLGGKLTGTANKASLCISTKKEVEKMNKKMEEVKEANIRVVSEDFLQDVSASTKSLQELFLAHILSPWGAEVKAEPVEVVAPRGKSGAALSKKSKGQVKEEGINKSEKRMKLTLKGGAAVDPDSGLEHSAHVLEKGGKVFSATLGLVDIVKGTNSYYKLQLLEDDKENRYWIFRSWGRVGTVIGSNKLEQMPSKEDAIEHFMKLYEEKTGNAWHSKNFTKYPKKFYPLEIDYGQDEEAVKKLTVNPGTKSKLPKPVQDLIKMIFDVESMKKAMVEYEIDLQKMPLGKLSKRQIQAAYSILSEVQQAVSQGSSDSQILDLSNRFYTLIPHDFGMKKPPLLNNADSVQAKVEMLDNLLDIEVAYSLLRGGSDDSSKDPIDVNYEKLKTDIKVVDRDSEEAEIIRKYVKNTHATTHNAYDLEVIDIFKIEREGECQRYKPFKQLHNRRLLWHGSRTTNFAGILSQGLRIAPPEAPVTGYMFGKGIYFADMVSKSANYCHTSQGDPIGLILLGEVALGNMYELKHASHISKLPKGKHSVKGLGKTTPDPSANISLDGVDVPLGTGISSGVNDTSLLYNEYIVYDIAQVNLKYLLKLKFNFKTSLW

MDA-MB-436 [3] = assay: Antiproliferative activity against BRCA1-deficient human MDA-MB-436 cells assessed as inhibition of cell proliferation incubated for 7 days by CCK-8 assay; format: functional, cell-based; settings: MDA-MB-436, 168 h
CAPAN-1 [4] = assay: Antiproliferative activity against BRCA2-deficient human CAPAN-1 cells assessed as inhibition of cell proliferation incubated for 7 days by CellTiter-Glo assay; format: functional, cell-based; settings: CAPAN-1, 168 h
[5] = Antiproliferative activity against human UWB1289 cells with restoration of BRCA1 expression assessed as inhibition of cell proliferation incubated for 7 days by SRB assay; format: functional, cell-based; settings: UWB1289, 168 h
CAPAN-1 [6] = assay: Induction of apoptosis in human CAPAN-1 cells assessed as late apoptotic cells at 1 uM incubated for 96 hrs by AnnexinV-FITC/PI staining based flow cytometry (reference value: 8.99%); format: functional
[7] = Cytotoxicity against human IMR-90 cells expressing wild type BRCA-1 assessed as inhibition of cell proliferation incubated for 7 days by SRB assay; format: toxicity, cell-based
[8] = Cytotoxicity against human WI-38 cells expressing wild type BRCA1 assessed as inhibition of cell proliferation incubated for 7 days by SRB assay; format: toxicity, cell-based
CAPAN-1 [9] = assay: Induction of apoptosis in human CAPAN-1 cells assessed as late apoptotic cells at 5 uM incubated for 96 hrs by AnnexinV-FITC/PI staining based flow cytometry (reference value: 8.99%); format: functional
CAPAN-1 [10] = assay: Induction of apoptosis in human CAPAN-1 cells assessed as early apoptotic cells at 1 uM incubated for 96 hrs by AnnexinV-FITC/PI staining based flow cytometry (reference value: 5.08%); format: functional
CAPAN-1 [11] = assay: Induction of apoptosis in human CAPAN-1 cells assessed as late apoptotic cells at 10 uM incubated for 96 hrs by AnnexinV-FITC/PI staining based flow cytometry (reference value: 8.99%); format: functional
CAPAN-1 [12] = assay: Induction of apoptosis in human CAPAN-1 cells assessed as early apoptotic cells at 10 uM incubated for 96 hrs by AnnexinV-FITC/PI staining based flow cytometry (reference value: 5.08%); format: functional
MDA-MB-436 [13] = assay: Induction of DNA double strand breaks in human MDA-MB-436 cells assessed as increase in Chk1 phosphorylation at Ser345 residue incubated for 48 hrs by western blot analysis; format: functional, cell-based; settings: dose 0.1-1 µM
CAPAN-1 [14] = assay: Induction of DNA double strand breaks in human CAPAN-1 cells assessed as increase in Chk1 phosphorylation at Ser345 residue incubated for 48 hrs by western blot analysis; format: functional, cell-based; settings: dose 0.1-1 µM
CAPAN-1 [15] = assay: Induction of DNA double strand breaks in human CAPAN-1 cells assessed as increase in gamma-H2AX level at 10 uM incubated for 48 hrs by immunofluorescence-based laser confocal microscopy; format: functional, cell-based
CAPAN-1 [16] = assay: Induction of apoptosis in human CAPAN-1 cells assessed as early apoptotic cells at 5 uM incubated for 96 hrs by AnnexinV-FITC/PI staining based flow cytometry (reference value: 5.08%); format: functional
CAPAN-1 [17] = assay: Induction of cell cycle arrest at G2/M phase in human CAPAN-1 cells incubated for 48 hrs by propidium iodide staining based flow cytometry; format: functional; settings: dose 1-10 µM, DDE = dose-dependent effect
CAPAN-1 [18] = assay: Induction of DNA double strand breaks in human CAPAN-1 cells assessed as increase in gamma-H2AX level incubated for 48 hrs by western blot analysis; format: functional, cell-based; settings: dose 0.1-1 µM, DDE = dose-dependent effect
MDA-MB-436 [19] = assay: Induction of DNA double strand breaks in human MDA-MB-436 cells assessed as increase in gamma-H2AX level incubated for 48 hrs by western blot analysis; format: functional, cell-based; settings: dose 0.1-1 µM, DDE = dose-dependent effect

- IC50 [2]: 2.18 nM
- IC50 (MDA-MB-436 [3]): 2190 nM
SMILES: C=C1C(=O)OC2C[C@@]3(C)CCC=C(COC(=O)CCN(C)C(=O)c4cc(Cc5n[nH]c(=O)c6ccccc56)ccc4F)C3=CC12 (some centres not stated)
- IC50 [1]: 900 nM
- IC50 (CAPAN-1 [4]): 1280 nM
- IC50 [5]: 1210 nM

- IC50 [2]: 134 nM
SMILES: C=C1C(=O)OC2C[C@@]3(C)CCC=C(COC(=O)CCNC(=O)c4cc(Cc5n[nH]c(=O)c6ccccc56)ccc4F)C3=CC12 (some centres not stated)

- IC50 [2]: 5.91 nM
- IC50 (MDA-MB-436 [3]): 190 nM
SMILES: C[C@]12CCC=C(CO)C1=CC1C(C2)OC(=O)C1CNCCOCCOCC(=O)N1CCN(C(=O)c2cc(Cc3n[nH]c(=O)c4ccccc34)ccc2F)CC1 (some centres not stated)
- Activity (CAPAN-1 [6]): 12.6%
- IC50 [1]: 410 nM
- IC50 at 7 days [7]: 10100 nM
- IC50 at 7 days [8]: 12000 nM
- Activity (CAPAN-1 [9]): 16.5%
- Activity (CAPAN-1 [10]): 6.64%
- Activity (CAPAN-1 [11]): 33.5%
- IC50 (CAPAN-1 [4]): 750 nM
- IC50 [5]: 2570 nM
- Activity (CAPAN-1 [12]): 12.5%
- Activity (MDA-MB-436 [13]): Active
- Activity (CAPAN-1 [14]): Active
- Activity (CAPAN-1 [15]): Active
- Activity (CAPAN-1 [16]): 9.68%
- Activity (CAPAN-1 [17]): Dde
- Activity (CAPAN-1 [18]): Dde
- Activity (MDA-MB-436 [19]): Dde

- IC50 [2]: 43 nM
SMILES: C[C@H]1CCC[C@]2(C)CC3OC(=O)C(CN(C)CCCC(=O)N4CCN(C(=O)c5cc(Cc6n[nH]c(=O)c7ccccc67)ccc5F)CC4)C3C=C12 (some centres not stated)

- IC50 [2]: 2600 nM
SMILES: C=C1C(=O)OC2C[C@@]3(C)CCC=C(COC(=O)c4cc(Cc5n[nH]c(=O)c6ccccc56)ccc4F)C3=CC12 (some centres not stated)

- IC50 [2]: 136 nM
SMILES: C[C@H]1CCC[C@]2(C)CC3OC(=O)C(CN4CCN(C(=O)c5cc(Cc6n[nH]c(=O)c7ccccc67)ccc5F)CC4)C3C=C12 (some centres not stated)

- IC50 [2]: 422 nM
SMILES: C[C@]12CCC=C(CO)C1=CC1C(C2)OC(=O)C1CNCCCCCCCC(=O)N1CCN(C(=O)c2cc(Cc3n[nH]c(=O)c4ccccc34)ccc2F)CC1 (some centres not stated)

- IC50 [2]: 19.7 nM
SMILES: C[C@H]1CCC[C@]2(C)CC3OC(=O)C(CNOCC(=O)N4CCN(C(=O)c5cc(Cc6n[nH]c(=O)c7ccccc67)ccc5F)CC4)C3C=C12 (some centres not stated)

- IC50 [2]: 79.2 nM
SMILES: C=C1C(=O)OC2C[C@@]3(C)CCC=C(COC(=O)CCC4CCN(C(=O)c5cc(Cc6n[nH]c(=O)c7ccccc67)ccc5F)CC4)C3=CC12 (some centres not stated)

- IC50 [2]: 279 nM
SMILES: C=C1C(=O)OC2C[C@@]3(C)CCC=C(COC(=O)C4CN(C(=O)c5cc(Cc6n[nH]c(=O)c7ccccc67)ccc5F)C4)C3=CC12 (some centres not stated)

- IC50 (MDA-MB-436 [3]): 100 nM
SMILES: O=C(c1cc(Cc2n[nH]c(=O)c3ccccc23)ccc1F)N1CCN(C(=O)C2CC2)CC1 [OLAPARIB]
- Activity (CAPAN-1 [6]): 10.1%
- IC50 [1]: 660 nM
- Activity (CAPAN-1 [9]): 12.9%
- Activity (CAPAN-1 [10]): 4.92%
- Activity (CAPAN-1 [11]): 19%
- IC50 (CAPAN-1 [4]): 530 nM
- IC50 [5]: 4650 nM
- Activity (CAPAN-1 [12]): 9.82%
- Activity (CAPAN-1 [15]): Active
- Activity (CAPAN-1 [16]): 5.74%
- Activity (CAPAN-1 [18]): Dde
- Activity (MDA-MB-436 [19]): Dde

- IC50 [2]: 88.4 nM
SMILES: C[C@]12CCC=C(C=O)C1=CC1C(C2)OC(=O)C1CNCCOCCOCC(=O)N1CCN(C(=O)c2cc(Cc3n[nH]c(=O)c4ccccc34)ccc2F)CC1 (some centres not stated)

- IC50 [2]: 15.5 nM
SMILES: C[C@H]1CCC[C@]2(C)CC3OC(=O)C(CNCCC(=O)N4CCN(C(=O)c5cc(Cc6n[nH]c(=O)c7ccccc67)ccc5F)CC4)C3C=C12 (some centres not stated)

- IC50 [2]: 94.9 nM
SMILES: C[C@]12CCC=C(CO)C1=CC1C(C2)OC(=O)C1CN1CCN(C(=O)c2cc(Cc3n[nH]c(=O)c4ccccc34)ccc2F)CC1 (some centres not stated)

- IC50 [2]: 43.9 nM
SMILES: C[C@H]1CCC[C@]2(C)CC3OC(=O)C(CN(C)CCC(=O)N4CCN(C(=O)c5cc(Cc6n[nH]c(=O)c7ccccc67)ccc5F)CC4)C3C=C12 (some centres not stated)

- IC50 [2]: 38.6 nM
SMILES: C=C1C(=O)OC2C[C@@]3(C)CCC=C(COC(=O)COCCOCCNC(=O)c4cc(Cc5n[nH]c(=O)c6ccccc56)ccc4F)C3=CC12 (some centres not stated)

- IC50 [2]: 73.4 nM
SMILES: C[C@H]1CCC[C@]2(C)CC3OC(=O)C(CNCCOCCOCCOCC(=O)N4CCN(C(=O)c5cc(Cc6n[nH]c(=O)c7ccccc67)ccc5F)CC4)C3C=C12 (some centres not stated)

- IC50 [2]: 65.2 nM
SMILES: C=C1C(=O)OC2C[C@@]3(C)CCC=C(COC(=O)CC4CCCN(C(=O)c5cc(Cc6n[nH]c(=O)c7ccccc67)ccc5F)C4)C3=CC12 (some centres not stated)

- IC50 [2]: 20.3 nM
SMILES: C[C@H]1CCC[C@]2(C)CC3OC(=O)C(CN(C)CC(=O)N4CCN(C(=O)c5cc(Cc6n[nH]c(=O)c7ccccc67)ccc5F)CC4)C3C=C12 (some centres not stated)

- IC50 [2]: > 10000 nM
SMILES: C=C1C(=O)O[C@@H]2C[C@@]3(C)CCC[C@H](C)C3=C[C@H]12 [HELENINE]

- IC50 [2]: 8.33 nM
- IC50 (MDA-MB-436 [3]): 200 nM
SMILES: C[C@H]1CCC[C@]2(C)CC3OC(=O)C(CNCCCC(=O)N4CCN(C(=O)c5cc(Cc6n[nH]c(=O)c7ccccc67)ccc5F)CC4)C3C=C12 (some centres not stated)
- IC50 [1]: 1120 nM
- IC50 (CAPAN-1 [4]): 990 nM
- IC50 [5]: 2250 nM

- IC50 [2]: 170 nM
SMILES: C=C1C(=O)OC2C[C@@]3(C)CCC=C(CN4CCN(C(=O)c5cc(Cc6n[nH]c(=O)c7ccccc67)ccc5F)CC4)C3=CC12 (some centres not stated)

- IC50 [2]: 129 nM
SMILES: C=C1C(=O)OC2C[C@@]3(C)CCC=C(COC(=O)CCCC4CCN(C(=O)c5cc(Cc6n[nH]c(=O)c7ccccc67)ccc5F)CC4)C3=CC12 (some centres not stated)

- IC50 [2]: 69.9 nM
SMILES: C=C1C(=O)OC2C[C@@]3(C)CCC=C(COC(=O)CC4CCN(C(=O)c5cc(Cc6n[nH]c(=O)c7ccccc67)ccc5F)CC4)C3=CC12 (some centres not stated)

- IC50 [2]: 25.5 nM
SMILES: C[C@H]1CCC[C@]2(C)CC3OC(=O)C(CNCC(=O)N4CCN(C(=O)c5cc(Cc6n[nH]c(=O)c7ccccc67)ccc5F)CC4)C3C=C12 (some centres not stated)

- IC50 [2]: 2.99 nM
- IC50 (MDA-MB-436 [3]): 190 nM
SMILES: C[C@H]1CCC[C@]2(C)CC3OC(=O)C(CNCCCCCCCC(=O)N4CCN(C(=O)c5cc(Cc6n[nH]c(=O)c7ccccc67)ccc5F)CC4)C3C=C12 (some centres not stated)
- Activity (CAPAN-1 [6]): 14.4%
- IC50 [1]: 270 nM
- IC50 at 7 days [7]: 11700 nM
- IC50 at 7 days [8]: 11800 nM
- Activity (CAPAN-1 [9]): 13.9%
- Activity (CAPAN-1 [10]): 5.52%
- Activity (CAPAN-1 [11]): 58.2%
- IC50 (CAPAN-1 [4]): 870 nM
- IC50 [5]: 1430 nM
- Activity (CAPAN-1 [12]): 35.4%
- Activity (MDA-MB-436 [13]): Active
- Activity (CAPAN-1 [14]): Active
- Activity (CAPAN-1 [15]): Active
- Activity (CAPAN-1 [16]): 7.21%
- Activity (CAPAN-1 [17]): Dde
- Activity (CAPAN-1 [18]): Dde
- Activity (MDA-MB-436 [19]): Dde
